Measurements published in the NIST ThermoML archive (doi:10.1021/je400405m).

Test: wn = mass fraction of the nth substance listed
Details: w1 = 0.0516; for surface tension liquid-gas: Maximal bubble pressure; for viscosity / mass density: 101 kPa, Liquid; for viscosity: Capillary tube (Ostwald / Ubbelohde) method; for mass density: Pycnometric method

C1CNCCN1 [piperazine] + O
Details	mass density [kg/m3]	surface tension liquid-gas [mN/m]	viscosity [mPa·s]
303.15 K	998.03	68.55	0.948
313.15 K	994.71	66.97	0.75
323.15 K	990.08	65.1	0.616
